What all share (assay type): in vivo
Experiment [1] deals with Sweetpotato Whitefly (Bemisia tabacia). In words: Insecticidal test for sweetpotato whitefly, spray on cotton plants. Details: key: A: 90–100; B: 80–89; C: 70–79; D: 60–69; E: 50–59; F: less than 50; G: Inactive. Conditions: 200 ppm spray, 13 days, large nymphs. As to the method: Insecticidal Test for Sweetpotato Whitefly (Bemisia tabacia)
Four mg of each test compound was dissolved by adding 4 mL of a 90:10 acetone:ethanol solvent mixture to the vial containing the sample compound. This solution was added to 16 mL of water containing 0.05% Tween 20 surfactant to produce 20 mL of an 200 ppm spray solution.
Five-week-old cotton plants reared in a greenhouse were stripped of all foliage except for the two uppermost true leaves that were greater than 5 cm in diameter. These plants were then placed into a laboratory colony of whiteflies for two days for oviposition by the colony females. All whiteflies were then removed from the test plants with pressurized air. The spray solution was then applied to the test plants with a hand-held syringe fitted with hollow cone nozzle. One mL spray solution was applied to each leaf top and bottom for a total of 4 mL per plant. Four replications of each test compound utilized a total of 16 mL spray solution. Plants were air dried and then placed in a holding chamber (28° C. and 60% RH) for 13 days. Compound efficacy was evaluated by counting, under an illuminated magnifying glass, the number of large nymphs (3rd–4th instar) per leaf.
Percent control based on reduction of large nymphs of a test compound compared to solution-only (no test compound) sprayed plants is reported in Tables 1–4.

Experiment [2] concerns Tobacco Budworm (Heliothis virescens). As to the kind of experiment: Insecticidal test for tobacco budworm, treated cotton cotyledon leaf disc. Details: key: A: 90–100; B: 80–89; C: 70–79; D: 60–69; E: 50–59; F: less than 50; G: Inactive. Conditions: cotton cotyledon leaf-dip, 2nd instar larvae, 5 days. The source says:
(§1) The compounds are useful for reducing populations of insects and mites and are useful in a method of inhibiting an insect or mite population which comprises applying to a locus of the insect or mite an effective insect- or mite-inactivating amount of a compound of formula (1). The “locus” of insects or mites is a term used herein to refer to the environment in which the insects or mites live or where their eggs are present, including the air surrounding them, the food they eat, or objects which they contact. For example, insects or mites which eat or contact edible or ornamental plants can be controlled by applying the active compound to plant parts such as the seed, seedling, or cutting which is planted, the leaves, stems, fruits, grain, or roots, or to the soil in which the roots are growing. It is contemplated that the compounds might also be useful to protect textiles, paper, stored grain, seeds, domesticated animals, buildings or human beings by applying an active compound to or near such objects. The term “inhibiting an insect or mite” refers to a decrease in the numbers of living insects or mites, or a decrease in the number of viable insect or mite eggs. The extent of reduction accomplished by a compound depends, of course, upon the application rate of the compound, the particular compound used, and the target insect or mite species. At least an inactivating amount should be used. The terms “insect-inactivating amount” and “mite-inactivating amount” are used to describe the amount, which is sufficient to cause a measurable reduction in the treated insect or mite population. Generally an amount in the range from about 1 to about 1000 ppm by weight active compound is used. For example, insects and mites which can be inhibited include, but are not limited to: • Lepidoptera—Heliothis spp., Helicoverpa spp., Spodoptera spp., Mythimna unipuncta, Agrotis ipsilon, Earias spp., Euxoa auxiliaris, Trichoplusia ni, Anticarsia gemmatalis, Rachiplusia nu, Plutella xylostella, Chilo spp., Scirpophaga incertulas, Sesamia inferens, Cnaphalocrocis medinalis, Ostrinia nubilalis, Cydia pomonella, Carposina niponensis, Adoxophyes orana, Archips argyrospilus, Pandemis heparana, Epinotia aporema, Eupoecilia ambiguella, Lobesia botrana, Polychrosis viteana, Pectinophora gossypiella, Pieris rapae, Phyllonorycter spp., Leucoptera malifoliella, Phyllocnisitis citrella • Coleoptera—Diabrotica spp., Leptinotarsa decemlineata, Oulema oryzae, Anthonomus grandis, Lissorhoptrus oryzophilus, Agriotes spp., Melanotus communis, Popillia japonica, Cyclocephala spp., Tribolium spp. • Homoptera—Aphis spp., Myzus persicae, Rhopalosiphum spp., Dysaphis plantaginea, Toxoptera spp., Macrosiphum euphorbiae, Aulacorthum solani, Sitobion avenae, Metopolophium dirhodum, Schizaphis graminum, Brachycolus noxius, Nephotettix spp., Nilaparvata lugens, Sogatella furcifera, Laodelphax striatellus, Bemisia tabaci, Trialeurodes vaporariorum, Aleurodes proletella, Aleurothrixus floccosus, Quadraspidiotus perniciosus, Unaspis yanonensis, Ceroplastes rubens, Aonidiella aurantii • Hemiptera—Lygus spp., Eurygaster maura, Nezara viridula, Piezodorus guildingi, Leptocorisa varicornis • Thysanoptera—Frankliniella occidentalis, Thrips spp., Scirtothrips dorsalis • Isoptera—Reticulitermes flavipes, Coptotermes formosanus • Orthoptera—Blattella germanica, Blatta orientalis, Gryllotalpa spp. • Diptera—Liriomyza spp., Musca domestica, Aedes spp., Culex spp., Anopheles spp. • Hymenoptera—Iridomyrmex humilis, Solenopsis spp., Monomorium pharaonis, Atta spp., Pogonomyrmex spp., Camponotus spp. • Siphonaptera—Ctenophalides spp., Pulex irritans • Acarina—Tetranychus spp., Panonychus spp., Eotetranychus carpini, Phyllocoptruta oleivora, Aculus pelekassi, Brevipalpus phoenicis, Boophilus spp., Dermacentor variabilis, Rhipicephalus sanguineus, Amblyomma americanum, Ixodes spp., Notoedres cati, Sarcoptes scabiei, Dermatophagoides spp. […]

The test system of experiment [3] is Cabbage Looper (Trichoplusia ni). In words: Insecticidal test for cabbage looper, treated cabbage leaf disc. Details: key: A: 90–100; B: 80–89; C: 70–79; D: 60–69; E: 50–59; F: less than 50; G: Inactive. As to conditions: cabbage leaf-dip, 2nd instar larvae, 5 days.
Source text: as §1

Experiment [4] relates to Two-spotted Spider Mite (Tetranychus urticae). In words: Insecticidal test for two-spotted spider mite, ovicide method. The arrangement: key: A: 90–100; B: 80–89; C: 70–79; D: 60–69; E: 50–59; F: less than 50; G: Inactive. As to conditions: cotton leaf discs, 6 days. As to the method: Insecticidal Test for Two-spotted Spider Mite (Tetranychus urticae)
Ten adult female two-spotted spider mites were placed on eight 2.2 cm leaf discs of cotton leaf, allowed to oviposit over 24 hours, and thereafter removed. […] Discs were placed on an agar substrate and held at 24° C. and 90% RH for 6 days.

In experiment [5] the test system is Cotton Aphid (Aphis gossypii). In words: Insecticidal test for cotton aphid, spray on infested squash cotyledons. As to conditions: 50 ppm spray, 3 days. Here is the method:
Insecticidal Test for Cotton Aphid (Aphis gossypii)
To prepare spray solutions, 1 mg of each test compound was dissolved into 1 mL of a 90:10 acetone:ethanol solvent. This 1 mL of chemical solution was added to 19 mL of water containing 0.05% Tween 20 surfactant to produce a 50 ppm spray solution.
Squash cotyledons were infested with cotton aphid (all life stages) 16–20 hours prior to application of spray solution. The solution was sprayed on both sides of each infested squash cotyledon (0.5 mL×2 each side) with a sweeping action until runoff. The plants were allowed to air dry and held for 3 days in a controlled room at 26° C. and 40% RH after which time the test was graded. Grading was by actual count using a dissecting microscope and comparison of test counts to the untreated check. Results are given in Tables 1–4 as percent control based on population reduction versus the untreated.

Experiment [6] deals with Beet Armyworm (Spodoptera exigua). In words: Insecticidal test for beet armyworm, treated lepidopteran diet. Details: key: A: 90–100; B: 80–89; C: 70–79; D: 60–69; E: 50–59; F: less than 50; G: Inactive. Conditions: on diet surface, second-instar larvae, 5 days.
Source text: as §1

Consider `Cc1sc(-c2ccc(OC(F)(F)C(F)C(F)(F)F)cc2)c(C)c1-c1nc(-c2c(F)cccc2Cl)nn1C` (centres unmarked), for which the “WF: activity at 200 ppm against whitefly (% control rating)” value (from here on “WF: activity … (% control rating)”) in experiment [1] is listed as “G”. Besides, in experiment [2], the “TBW: activity at 400 ppm against tobacco budworm (% control rating)” value (“TBW: activity at 400 ppm … (% control rating)” for short) is “A (90–100)”. In addition, the “CL: activity at 400 ppm against cabbage looper (% control rating)” value (shortened to “CL: activity at 400 ppm … (% control rating)”) in experiment [3] is “A (90–100)”. Besides, in experiment [4], the “SM: activity against two-spotted spider mite (% control rating)” value (from here on “SM: activity … (% control rating)”) was “G”. Also, in experiment [5], the “CA: activity at 50 ppm against cotton aphid (% control rating)” value (“CA: activity at 50 ppm … (% control rating)” for short) is given as “E (50–59)”. The “BAW: activity at 400 ppm against beet armyworm (% control rating)” value (from here on “BAW: activity at 400 ppm … (% control rating)”) in experiment [6] is “A (90–100)”.
Take `CC(C)=COc1ccc(-c2scc(-c3nc(-c4c(F)cccc4Cl)nn3C)c2C)cc1`: the “WF: activity … (% control rating)” value in experiment [1] is given as “A (90–100)”. Further, the “TBW: activity at 400 ppm … (% control rating)” value in experiment [2] is listed as “F (less than 50)”. Further, in experiment [3], the “CL: activity at 400 ppm … (% control rating)” value was “A (90–100)”. The “SM: activity … (% control rating)” value in experiment [4] is “A (90–100)”. In addition, the “CA: activity at 50 ppm … (% control rating)” value in experiment [5] is recorded as “A (90–100)”. In addition, the “BAW: activity at 400 ppm … (% control rating)” value in experiment [6] is “A (90–100)”.
`Cc1c(-c2nc(-c3c(F)cccc3F)nn2C)csc1-c1ccc(C(F)(F)F)cc1Cl`: the “WF: activity … (% control rating)” value in experiment [1] was “G”. Further, in experiment [2], the “TBW: activity at 400 ppm … (% control rating)” value is given as “G”. Further, the “CL: activity at 400 ppm … (% control rating)” value in experiment [3] is “A (90–100)”. Also, the “SM: activity … (% control rating)” value in experiment [4] is on record as “G”. In experiment [5], the “CA: activity at 50 ppm … (% control rating)” value is reported as “E (50–59)”. Also, in experiment [6], the “BAW: activity at 400 ppm … (% control rating)” value is given as “G”.
For the molecule `Cc1cc(-c2ccc(F)cc2)sc1-c1nc(-c2c(F)cccc2Cl)nn1C`, the “WF: activity … (% control rating)” value in experiment [1] was “G”. The “TBW: activity at 400 ppm … (% control rating)” value in experiment [2] is given as “F (less than 50)”. The “CL: activity at 400 ppm … (% control rating)” value in experiment [3] is given as “A (90–100)”. In addition, the “SM: activity … (% control rating)” value in experiment [4] was “A (90–100)”. Also, in experiment [5], the “CA: activity at 50 ppm … (% control rating)” value is recorded as “B (80–89)”. Besides, the “BAW: activity at 400 ppm … (% control rating)” value in experiment [6] is on record as “D (60–69)”.
`Cc1c(-c2nc(-c3c(F)cccc3Cl)nn2C)csc1-c1ccc(F)cc1F` [drawing 233]: the “WF: activity … (% control rating)” value in experiment [1] is recorded as “F (less than 50)”. The “TBW: activity at 400 ppm … (% control rating)” value in experiment [2] is “G”. Also, in experiment [3], the “CL: activity at 400 ppm … (% control rating)” value was “A (90–100)”. Also, the “SM: activity … (% control rating)” value in experiment [4] was “B (80–89)”. Besides, in experiment [5], the “CA: activity at 50 ppm … (% control rating)” value is “B (80–89)”. In experiment [6], the “BAW: activity at 400 ppm … (% control rating)” value is “G”.
For the molecule `Cc1cc(-c2ccc(OC(C)C)cc2)sc1-c1nc(-c2c(F)cccc2Cl)nn1C`, in experiment [2], the “TBW: activity at 400 ppm … (% control rating)” value is listed as “G”. The “CL: activity at 400 ppm … (% control rating)” value in experiment [3] was “B (80–89)”. For the same molecule, in experiment [4], the “SM: activity … (% control rating)” value was “A (90–100)”. Moreover, the “CA: activity at 50 ppm … (% control rating)” value in experiment [5] is “D (60–69)”. For the same molecule, in experiment [6], the “BAW: activity at 400 ppm … (% control rating)” value is “D (60–69)”.
In the case of `Cc1c(-c2nc(-c3c(F)cccc3Cl)nn2C)csc1-c1ccc(SCF)cc1`, the “WF: activity … (% control rating)” value in experiment [1] was “F (less than 50)”. The “TBW: activity at 400 ppm … (% control rating)” value in experiment [2] is “G”. Also, the “CL: activity at 400 ppm … (% control rating)” value in experiment [3] is on record as “G”. The “CA: activity at 50 ppm … (% control rating)” value in experiment [5] is on record as “B (80–89)”. The “BAW: activity at 400 ppm … (% control rating)” value in experiment [6] is “B (80–89)”.
Consider `Cc1sc(-c2ccc(C(F)(F)F)cc2F)c(C)c1-c1nc(-c2c(F)cccc2Cl)nn1C`, for which the “TBW: activity at 400 ppm … (% control rating)” value in experiment [2] is “G”. In addition, the “CL: activity at 400 ppm … (% control rating)” value in experiment [3] was “A (90–100)”. Further, in experiment [5], the “CA: activity at 50 ppm … (% control rating)” value was “B (80–89)”. Moreover, the “BAW: activity at 400 ppm … (% control rating)” value in experiment [6] is given as “A (90–100)”.

Values taken from patent US7056940B2, “Insecticidal 3-(2,6-disubstituted phenyl)-5-[5-arylthien-2-yl]-1,2,4-triazoles” (Dow AgroSciences LLC, priority 2001, dated 2006).
